Assay: Storage stability of the solid state form
Type: physicochemical
Procedure: Crystalline Form C2 of Zavegepant hydrochloride may have one or more advantageous properties, as discussed herein above. For example, Form C2 is stable for a period of at least for 6 months at temperature of about 25° C. and a relative humidity (“RH”) of 60% RH, and at a temperature of about 40° C. and 75% RH.

period for which the form is stable (temperature of about 25° C., 60% RH): ≥ 6 months
period for which the form is stable (temperature of about 40° C., 75% RH): ≥ 6 months
SMILES: Cc1cc(C[C@@H](NC(=O)N2CCC(c3cc4ccccc4[nH]c3=O)CC2)C(=O)N2CCN(C3CCN(C)CC3)CC2)cc2cn[nH]c12 [Form C2, (R)N-(3-(7-methyl-1H-indazol-5-yl)-1-(4-(1-methylpiperidin-4-yl)piperazin-1-yl)-1-oxopropan-2-yl)-4-(2-oxo-1,2-dihydroquinolin-3-yl)piperidine-1-carboxamide]
